Reference: PubChem BioAssay (NCI)
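Exposure lasted 48 hours, with cells grown in 96-well plates and compounds tested at five concentrations. At the TGI there is no net growth.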

Legend:
Experiment in all cases: growth of human tumour cells (NCI), 48 h
[1] = test system: SN12C renal
[2] = test system: HCC-2998 colon
[3] = test system: K-562 leukemia
[4] = test system: NCI-H460 lung
[5] = test system: HCT-15 colon
[6] = test system: SNB-19 CNS
[7] = test system: SF-539 CNS
[8] = test system: HCT-116 colon
[9] = test system: RXF 393 renal
[10] = test system: RPMI-8226 leukemia
[11] = test system: UO-31 renal
[12] = test system: TK-10 renal
[13] = test system: DU-145 prostate
[14] = test system: MDA-MB-231 breast
[15] = test system: ACHN renal
[16] = test system: COLO 205 colon
[17] = test system: NCI/ADR-RES ovarian
[18] = test system: NCI-H522 lung
[19] = test system: SK-MEL-5 melanoma
[20] = test system: MDA-N
[21] = test system: MCF7 breast
[22] = test system: UACC-62 melanoma
[23] = test system: MDA-MB-435
[24] = test system: HS 578T breast
[25] = test system: OVCAR-8 ovarian
[26] = test system: U251 CNS
[27] = test system: SK-MEL-28 melanoma
[28] = test system: 786-0 renal
[29] = test system: HOP-62 NSCLC
[30] = test system: MALME-3M melanoma
[31] = test system: SW-620 colon
[32] = test system: SNB-75 CNS
[33] = test system: BT-549 breast
[34] = test system: SK-MEL-2 melanoma
[35] = test system: HOP-92 NSCLC
[36] = test system: CAKI-1 renal
[37] = test system: MOLT-4 leukemia
[38] = test system: OVCAR-4 ovarian
[39] = test system: NCI-H226 lung
[40] = test system: A549 NSCLC
[41] = test system: EKVX NSCLC
[42] = test system: LOX IMVI melanoma
[43] = test system: PC-3 prostate
[44] = test system: CCRF-CEM leukemia
[45] = test system: HT29 colon
[46] = test system: SR leukemia
[47] = test system: HL-60(TB) leukemia
[48] = test system: SF-268 CNS
[49] = test system: UACC-257 melanoma
[50] = test system: IGROV1 ovarian
[51] = test system: KM12 colon
[52] = test system: T-47D breast

CCOC(=O)C(NC(=O)c1cccc(Cl)c1)(Nc1cccc(C)c1)C(F)(F)F (configuration not stated)
TGI [1]: 50.8 µM | TGI [2]: 31.4 µM | TGI [3]: > 100 µM | TGI [4]: 47.6 µM | TGI [5]: 31.2 µM | TGI [6]: > 100 µM | TGI [7]: 32.7 µM | TGI [8]: 33.4 µM | TGI [9]: 26.2 µM | TGI [10]: > 100 µM | TGI [11]: 32.7 µM | TGI [12]: > 100 µM | TGI [13]: 99.6 µM | TGI [14]: 41.6 µM | TGI [15]: 29.8 µM | TGI [16]: 36.2 µM | TGI [17]: 38.8 µM | TGI [18]: 20.5 µM | TGI [19]: 30.9 µM | TGI [20]: 38.8 µM | TGI [21]: 39 µM | TGI [22]: 28.5 µM | TGI [23]: 43.8 µM | TGI [24]: 49.4 µM | TGI [25]: 61 µM | TGI [26]: 79.3 µM | TGI [27]: 35.1 µM | TGI [28]: 47 µM | TGI [29]: 36.2 µM | TGI [30]: 30.4 µM | TGI [31]: 37.2 µM | TGI [32]: 43.9 µM | TGI [33]: 26.1 µM | TGI [34]: 31.8 µM | TGI [35]: 29 µM | TGI [36]: 47.5 µM | TGI [37]: 67.8 µM | TGI [38]: 62.8 µM | TGI [39]: 30.7 µM | TGI [40]: > 100 µM | TGI [41]: 63.1 µM | TGI [42]: 30.7 µM | TGI [43]: 43.6 µM | TGI [44]: > 100 µM | TGI [45]: 27.8 µM | TGI [46]: > 100 µM | TGI [47]: > 100 µM | TGI [48]: 58.9 µM | TGI [49]: 71.5 µM | TGI [50]: 34.8 µM | TGI [51]: 30.1 µM | TGI [52]: 54.5 µM
